Assay results from PMC11173382, “In Vitro Investigations into the Potential Drug Interactions of Pseudoginsenoside DQ Mediated by Cytochrome P450 and Human Drug Transporters” (Molecules, 2024).
Where two headings read alike, the source gives them in different places.

Experiments:
Type in all cases: in vitro ADME
hOCT2 = target: T1, hOCT2 (Homo sapiens, UniProt O15244); test: Substrates uptake assay, S2-OCT2 cells (14C-TEA); details: 14C-TEA 5 µM, 5 min
T1 construct: host or cells: S2-OCT2
T1 sequence (O15244 1-555): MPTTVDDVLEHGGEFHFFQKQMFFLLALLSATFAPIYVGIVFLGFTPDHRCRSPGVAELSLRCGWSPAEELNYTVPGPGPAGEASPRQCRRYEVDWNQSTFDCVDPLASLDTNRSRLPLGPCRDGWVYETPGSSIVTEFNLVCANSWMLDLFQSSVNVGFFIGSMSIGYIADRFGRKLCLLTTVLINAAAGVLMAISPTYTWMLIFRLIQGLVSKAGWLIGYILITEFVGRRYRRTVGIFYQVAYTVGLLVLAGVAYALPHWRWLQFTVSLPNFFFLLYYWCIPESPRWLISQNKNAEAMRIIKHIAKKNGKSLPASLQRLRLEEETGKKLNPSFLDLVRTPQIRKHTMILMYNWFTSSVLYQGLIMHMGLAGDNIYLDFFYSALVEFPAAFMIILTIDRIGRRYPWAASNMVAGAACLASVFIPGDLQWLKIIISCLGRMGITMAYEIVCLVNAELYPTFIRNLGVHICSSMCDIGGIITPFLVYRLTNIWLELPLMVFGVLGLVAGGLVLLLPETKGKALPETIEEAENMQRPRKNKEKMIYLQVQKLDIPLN

CYP3A4 = target: T2, CYP3A4 (Homo sapiens, UniProt P08684); test: CYP450 inhibition assay in human liver microsomes, CYP3A4 (midazolam and testosterone)
T2 construct: tissue Corning 452117; host or cells: human liver microsomes
T2 sequence (P08684 whole entry): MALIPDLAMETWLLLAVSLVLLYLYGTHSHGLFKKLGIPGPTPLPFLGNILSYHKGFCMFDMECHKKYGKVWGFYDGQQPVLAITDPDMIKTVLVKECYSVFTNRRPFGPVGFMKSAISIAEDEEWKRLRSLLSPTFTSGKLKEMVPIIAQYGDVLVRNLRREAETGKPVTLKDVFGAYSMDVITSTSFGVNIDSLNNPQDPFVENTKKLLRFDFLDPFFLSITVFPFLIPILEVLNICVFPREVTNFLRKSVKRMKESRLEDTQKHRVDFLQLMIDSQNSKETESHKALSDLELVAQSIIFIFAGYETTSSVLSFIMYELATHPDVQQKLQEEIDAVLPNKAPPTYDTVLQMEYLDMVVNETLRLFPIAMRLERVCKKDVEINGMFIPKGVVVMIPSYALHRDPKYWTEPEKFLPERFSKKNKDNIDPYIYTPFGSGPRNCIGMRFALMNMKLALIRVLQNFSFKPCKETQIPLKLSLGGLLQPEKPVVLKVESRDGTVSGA
Description: (§1) To evaluate the reliability and reproducibility of the CYP450 inhibition assay, we measured the inhibitory effects of selected positive control inhibitors of each CYP450 enzyme in human liver microsomes (HLM, Table 1, Figure 2). The potency of inhibition was estimated by observing the alteration in concentration of metabolites of CYP450 substrates (Table 1).
(§2) Reagents preparation. […] The stock solution of PDQ (10 mM) was prepared with methanol and further diluted to the range of 3 µM to 3 mM with methanol to ensure that the solvent of different PDQ samples contained the same amount (1%) of methanol.
(§3) The stock solutions of the positive control inhibitors and the probe substrates of CYP450 enzymes were prepared in methanol.
(§4) CYP450 inhibition assay. […] The assay was conducted in polypropylene 96-well plates (2.2 mL/well, Apricot Designs Inc., Covina, CA, USA).
The total volume of the reaction is 200 μL. The HLM mixtures (102 μL) containing individual probe substrates (Table 3), KH2PO4 buffer (100 mM, pH 7.4), and either PDQ or the positive control inhibitors (Table 3) were incubated for 10 min at 37 °C in a shaking incubator. Reactions were initiated by adding 98 μL NADPH (final concentration is 1.3 mM NADPH, 3 mM MgCl2 in 100 mM KH2PO4 buffer). The HLM reaction mixtures were shaken at 37 °C for various times (Table 4). The reaction time of CYP3A4 (midazolam), CYP2C19 and CYP2D6 were 3, 20 and 20 min, respectively, while the reactions of other CYP enzymes were terminated after 10 min. The reactions were quenched by adding 200 μL acetonitrile containing 3% formic acid and specific internal standards (Table 4). After shaking at 1000 rpm for 10 min, the reaction mixtures were centrifuged at 4000 rpm for 20 min. Supernatants were diluted with ultrapure water (Table 4) and shaken for 10 min at 1000 rpm. […] The substrates and analytes were analyzed by LC-MS/MS (API4000, Applied Biosystems, Singapore; HPLC, Shimadzu, Japan). […]
(§5) Data analysis. […] The IC50 was determined by fitting the dependence of the relative remaining activity (y = Vi/V0) to the following three-parameter equation (Equation (1)). […]

CYP2C8 = target: T3, CYP2C8 (Homo sapiens, UniProt P10632); test: CYP450 inhibition assay in human liver microsomes, CYP2C8; details: HLM 0.1 mg/mL; probe amodiaquine 2 µM; 10 min
T3 sequence (P10632 1-490): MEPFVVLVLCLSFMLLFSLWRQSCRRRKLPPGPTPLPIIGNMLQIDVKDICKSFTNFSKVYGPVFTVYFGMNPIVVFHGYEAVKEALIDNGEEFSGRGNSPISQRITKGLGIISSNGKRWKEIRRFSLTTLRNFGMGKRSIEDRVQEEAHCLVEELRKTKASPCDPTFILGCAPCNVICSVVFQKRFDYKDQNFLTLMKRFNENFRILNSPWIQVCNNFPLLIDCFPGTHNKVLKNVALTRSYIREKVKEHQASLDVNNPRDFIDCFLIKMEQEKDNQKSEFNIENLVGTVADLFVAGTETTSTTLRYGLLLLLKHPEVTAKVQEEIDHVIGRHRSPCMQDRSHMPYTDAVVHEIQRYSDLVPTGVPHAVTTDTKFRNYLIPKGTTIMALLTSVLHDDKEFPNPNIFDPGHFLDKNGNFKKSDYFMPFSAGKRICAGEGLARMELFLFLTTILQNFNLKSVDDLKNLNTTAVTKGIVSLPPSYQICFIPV
Description: as §1, §2, §3, §4
(§6) The total volume of the reaction is 200 μL. […] The substrates and analytes were analyzed by LC-MS/MS (API4000, Applied Biosystems, Singapore; HPLC, Shimadzu, Japan). […]
as §5

CYP2D6 = target: T4, CYP2D6 (Homo sapiens, UniProt P10635); test: CYP450 inhibition assay in human liver microsomes, CYP2D6; details: HLM 0.1 mg/mL; probe dextromethorphan 10 µM; 20 min
T4 construct: tissue Corning 452117; host or cells: human liver microsomes
T4 sequence (P10635 whole entry): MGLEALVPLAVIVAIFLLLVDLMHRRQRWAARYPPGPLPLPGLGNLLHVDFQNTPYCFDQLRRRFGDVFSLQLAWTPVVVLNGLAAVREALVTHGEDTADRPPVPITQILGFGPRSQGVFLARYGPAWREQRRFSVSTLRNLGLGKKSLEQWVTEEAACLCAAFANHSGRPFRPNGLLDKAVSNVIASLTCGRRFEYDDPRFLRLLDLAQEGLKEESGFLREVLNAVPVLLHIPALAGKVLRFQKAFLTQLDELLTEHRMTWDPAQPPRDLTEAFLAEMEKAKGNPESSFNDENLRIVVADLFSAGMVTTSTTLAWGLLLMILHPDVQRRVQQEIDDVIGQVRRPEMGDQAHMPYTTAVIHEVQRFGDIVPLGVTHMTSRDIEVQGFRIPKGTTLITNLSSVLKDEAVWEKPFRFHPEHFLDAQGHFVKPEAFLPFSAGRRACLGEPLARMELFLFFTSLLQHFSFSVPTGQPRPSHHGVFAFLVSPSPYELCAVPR
Description: as §1, §2, §3, §4, §6, §5

CC(C)(O)[C@@H]1CC[C@@](C)([C@H]2CC[C@]3(C)[C@@H]2[C@H](O)C[C@@H]2[C@@]4(C)CC[C@H](O)C(C)(C)[C@@H]4CC[C@]23C)O1 [PDQ, (20S,24S)-dammar-20,24-epoxy-3β, 12β, 25-triol]
IC50 (hOCT2): > 30 µM | IC50 (CYP3A4; HLM 0.1 mg/mL, probe midazolam 2 µM, 3 min, read-out: IC50 on CYP3A4 (Midazolam)): 2.02 µM | IC50 (CYP3A4; HLM 0.1 mg/mL, probe testosterone 40 µM, 10 min, read-out: IC50 on CYP3A4 (Testosterone)): 6.79 µM | IC50 (CYP3A4; HLM, midazolam and testosterone as substrates, read-out: IC50 on CYP3A4 (range over both substrates)): 2.02 to 6.79 µM | IC50 (CYP2C8): 16.4 µM | IC50 (CYP2D6): 52 µM
